From patent EP4702986A1, “POLYPEPTIDE AND USE THEREOF” (Biocells (Beijing) Biotech Co., Ltd., priority 2023, dated 2024)
Like-named read-outs stand apart in the source and are kept apart here. Numbered stars: 1 amine (or outer) side, 2 acyl side, 3 side chain; on linkers, the order of the positions; unused ones are H or OH. Bridge positions count the residues as written; N and C are the ends. Side chains are listed from the residue outwards. Ends that are not written are not given here. Peptide text beside a SMILES is read from it. * marks the point of attachment. C18 diacid = O=C(O)CCCCCCCCCCCCCCCCC(=O)*; γGlu = O=C(O)[C@H](CCC(=O)[*:2])N[*:1]; Stearoyl = CCCCCCCCCCCCCCCCCC(=O)*; Fumaroyl = O=C(O)/C=C/C(=O)*; Suc = O=C(CCC(=O)[*:2])[*:1]; AEEA = NCCOCCOCC(=O)O

Key:
[1] = Determination of half-lives of polypeptides (plasma, LC-MS); details: for half-life: C57 BL/6, mouse, plasma, iv; for AUClast 0-30 min: C57 BL/6 mice, dosage per compound 0.48, 0.96 or 1 mpk
human ETA receptor = molecular target: T1, human ETA receptor (Homo sapiens, UniProt P25101); test: Selectivity of polypeptides on human ETA receptor (IP-One Gq kit, % of positive control ET1); assay type: cell-based
T1 construct: expressed in transfected cells; host or cells: 293T-17 cells, transient transfection
T1 sequence (P25101 21-427): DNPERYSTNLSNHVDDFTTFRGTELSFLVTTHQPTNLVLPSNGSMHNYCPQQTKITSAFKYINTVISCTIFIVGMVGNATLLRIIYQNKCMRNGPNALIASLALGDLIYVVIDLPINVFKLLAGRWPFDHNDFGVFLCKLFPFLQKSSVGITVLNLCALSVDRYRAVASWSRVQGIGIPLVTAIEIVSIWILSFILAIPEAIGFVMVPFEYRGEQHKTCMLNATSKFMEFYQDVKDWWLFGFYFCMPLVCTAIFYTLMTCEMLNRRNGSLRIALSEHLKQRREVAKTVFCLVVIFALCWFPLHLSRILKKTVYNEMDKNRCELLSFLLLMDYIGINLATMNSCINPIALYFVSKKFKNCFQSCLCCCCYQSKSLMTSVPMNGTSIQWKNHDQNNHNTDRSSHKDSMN
Description: 293T-17 cells were seeded at a density of 650,000 cells per well in a 6-well plate and cultured overnight in an incubator at 37°C and 5% CO2. Afterward, the cells were transfected with an expression vector, PCDNA3.1-hETA which contained a human ETA receptor gene, at a plasmid concentration of 2.5 µg per well. The cells were further cultured for 48 hours, and green fluorescence expression was observed under a fluorescence microscope. The cells were then digested with trypsin and counted. The activity of compounds on the human ETA receptor was determined with the IP-One Gq kit from Cisbio Bioassays. The cells were suspended in Stim Buffer provided in the kit and the cell suspension was added to a 96-well detection plate at 7 µL cell suspension (containing 30,000 cells) per well. The polypeptides to be screened for activity (prepared according to the Preparation Example of the invention) and polypeptide human endothelin ET1 as positive control were dissolved in Stim B to be at a concentration of 2×, and 7 µL was added to the test cells, while 7 µL of PBS solution was added to the cells in the negative control wells. Human endothelin ET1 (ET1: […] (C1-C15,C3-C11)) set forth in SEQ ID No. 85 was used as the positive control polypeptide. The plate was sealed and incubated at 37°C for 1 h in a cell culture incubator. Detection wells, positive control wells, and PBS control wells were each added with 3 µL of IP1 d2 working solution and 3 µL of IP1 Tb cryptotate Antibody working solution. The plate was sealed and incubated in the dark at room temperature (25°C±5°C) for 1 h. The plate seal was removed, and the […] at 665 nm and 620 nm was measured with an ID5 microplate reader. The ratio of the acceptor emission signal to the donor emission signal, i.e., the value of (signal at 665 nm/signal at 620 nm)×10^4, was calculated for each well. With F3 representing the average value of values of signal at 665 nm/signal at 620 nm determined for the test sample at a specific concentration, F5 representing the average value of values of signal at 665 nm/signal at 620 nm determined for the positive control human endothelin ET1 at the same concentration, and T3 representing the average value of values of signal at 665 nm/signal at 620 nm determined for the PBS negative control, the percentage of activity of the test polypeptide sample relative to the positive control sample ET1 = (F3-T3)×100/(F5-T3) (see Table 6). hETA sequence (NCBI accession number L06622.1).

human ETB receptor = molecular target: T2, human ETB receptor (Homo sapiens, UniProt P24530); test: Screening of polypeptides for activity on human ETB receptor (IP-One Gq kit, % of positive control IRL1620); assay type: cell-based
T2 construct: expressed in transfected cells; host or cells: 293T-17 cells, transient transfection
T2 sequence (P24530 27-442): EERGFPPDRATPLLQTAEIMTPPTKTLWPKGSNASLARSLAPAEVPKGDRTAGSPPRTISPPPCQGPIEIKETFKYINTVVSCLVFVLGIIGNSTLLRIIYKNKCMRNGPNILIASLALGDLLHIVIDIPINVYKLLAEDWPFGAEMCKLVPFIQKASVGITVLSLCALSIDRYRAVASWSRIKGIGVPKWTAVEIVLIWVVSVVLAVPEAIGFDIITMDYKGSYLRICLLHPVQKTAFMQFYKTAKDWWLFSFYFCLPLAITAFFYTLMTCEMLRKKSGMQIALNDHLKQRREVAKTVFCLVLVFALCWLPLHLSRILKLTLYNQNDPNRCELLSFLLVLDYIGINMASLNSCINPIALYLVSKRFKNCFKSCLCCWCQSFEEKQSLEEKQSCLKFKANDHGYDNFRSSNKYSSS
Description: 293T-17 cells were seeded at a density of 650,000 cells per well in a 6-well plate and cultured overnight in an incubator at 37°C and 5% CO2. Afterward, the cells were transfected with an expression vector, PCDNA3.1-hETB which contained a human ETB receptor gene, at a plasmid concentration of 2.5 µg per well. The cells were further cultured for 48 hours, and green fluorescence expression was observed under a fluorescence microscope. The cells were then digested with trypsin and counted. The activity of compounds on the human ETB receptor was determined with the IP-One Gq kit from Cisbio Bioassays. The cells were suspended in Stim Buffer provided in the kit and the cell suspension was added to a 96-well detection plate at 7 µL cell suspension (containing 30,000 cells) per well. The polypeptides to be screened for activity (prepared according to the Preparation Example of the invention) and polypeptide IRL1620 as positive control were dissolved in Stim B to be at a concentration of 2×, and 7 µL was added to the test cells, while 7 µL of PBS solution was added to the cells in the negative control wells. IRL1620 was used as the positive control polypeptide. The plate was sealed and incubated at 37°C for 1 hour in a cell culture incubator. Test wells, positive control wells, and PBS control wells were each added with 3 µL of IP1 d2 working solution and 3 µL of IP1 Tb cryptotate Antibody working solution. The plate was then sealed and incubated in the dark at room temperature (25°C±5°C) for 1 hour. The plate seal was removed, and the […] at 665 nm and 620 nm was measured with an ID5 microplate reader. The ratio of the acceptor emission signal to the donor emission signal, i.e., the value of (signal at 665 nm/signal at 620 nm)×10^4, was calculated for each well. With F1 representing the average value of values of signal at 665 nm/signal at 620 nm determined for the test sample at a specific concentration, F2 representing the average value of values of signal at 665 nm/signal at 620 nm determined for the positive control IRL1620 at the same concentration, and T1 representing the average value of values of signal at 665 nm/signal at 620 nm determined for the PBS negative control, the percentage of activity of the test polypeptide sample relative to the positive control sample IRL1620 is equal to (F1-T1)×100/(F2-T1). hETB sequence (NCBI accession number NM_000115.5).

[2] = read-out: hETAR agonist activity, percentage of activity relative to ET1

| Compound | hETBR agonist activity, percentage of activity relative to IRL1620 (human ETB receptor) [%@100nM] | hETBR agonist activity, percentage of activity relative to IRL1620 (human ETB receptor; @10nM) [%@10nM] | hETAR agonist activity, percentage of activity relative to ET1 (human ETA receptor) [%@100µM] | hETAR agonist activity, percentage of activity relative to ET1 (human ETA receptor; @10µM) [%@10µM] | other results |
| --- | --- | --- | --- | --- | --- |
| CC[C@H](C)[C@H](NC(=O)[C@H](CC(=O)O)NC(=O)[C@H](CC(C)C)NC(=O)[C@H](Cc1c[nH]cn1)NC(=O)[C@H](C)NC(=O)[C@H](Cc1ccccc1)NC(=O)[C@H](Cc1ccc(O)cc1)NC(=O)[C@@H]1CSSC[C@H](NC(=O)[C@H](CCC(=O)O)NC(=O)[C@H](CC(=O)O)NC(=O)CCC(=O)O)C(=O)N[C@@H](CCC(=O)O)C(=O)N[C@@H](CCC(=O)O)C(=O)N1)C(=O)N[C@H](C(=O)N[C@@H](Cc1c[nH]c2ccccc12)C(=O)O)[C@@H](C)CC [BX-56] (Suc-DECEECYFAHLDIIW-OH; disulfide 3-6) | – | – | – | – | half-life [1]: 8.9 min; AUClast 0-30 min ([1]; i.v.): 1376 ng·h/mL |
| CCCCCCCCCCCCCCCCCC(=O)NCCOCCOCC(=O)NCCOCCOCC(=O)N[C@@H](CCC(=O)NCCCC[C@H](NC(=O)[C@H](Cc1c[nH]cn1)NC(=O)[C@H](C)NC(=O)[C@H](Cc1ccccc1)NC(=O)[C@H](Cc1ccc(O)cc1)NC(=O)[C@@H](NC(=O)[C@H](C)NC(=O)[C@H](CCC(=O)O)NC(=O)[C@H](CCC(=O)O)NC(=O)[C@H](CC(=O)O)NC(=O)/C=C/C(=O)O)C(C)C)C(=O)N[C@@H](CC(=O)O)C(=O)N[C@H](C(=O)N[C@H](C(=O)N[C@@H](Cc1c[nH]c2ccccc12)C(=O)O)[C@@H](C)CC)[C@@H](C)CC)C(=O)O [BX-69] (Fumaroyl-DEEAVYFAHK([γGlu-AEEA-AEEA-Stearoyl])DIIW-OH) | – | – | – | – | activation at 10 µM (human ETA receptor; [2]): 13.1%; activation at 100 µM (human ETA receptor; [2]): 11.5%; half-life [1]: 30 min; AUClast 0-30 min ([1]; i.v.): 1611 ng·h/mL; T1/2 ([1]; Table 1, mice, i.v.): T1/2=30min; |
| CC[C@H](C)[C@H](NC(=O)[C@H](CC(=O)O)NC(=O)[C@H](CCCCN)NC(=O)[C@H](Cc1c[nH]cn1)NC(=O)[C@H](C)NC(=O)[C@H](Cc1ccccc1)NC(=O)[C@H](Cc1ccc(O)cc1)NC(=O)[C@@H](NC(=O)[C@H](C)NC(=O)[C@H](CCC(=O)O)NC(=O)[C@H](CCC(=O)O)NC(=O)[C@H](CC(=O)O)NC(=O)/C=C/C(=O)O)C(C)C)C(=O)N[C@H](C(=O)N[C@@H](Cc1c[nH]c2ccccc12)C(=O)O)[C@@H](C)CC [F-BX-5] (Fumaroyl-DEEAVYFAHKDIIW-OH) | – | – | – | – | half-life [1]: < 3 min; AUClast 0-30 min ([1]; i.v.): 127 ng·h/mL |
| Fum-D cyclo(EEAK)YFAHK(-γE-AEEA-AEEA-ODDA)DVIW [BX-100] | 15.03 | 18.79 | 9.52 | -39.09 | – |
| Fum-D cyclo(EEAK)YFAHLD(2-Abu)IW [BX-64] | 132.16 | 79.92 | 6.41 | -13.52 | – |
| Fum-DEE cyclo(EVYFK)HKD(2-Abu)IW [BX-62] | 129.39 | 99.31 | – | – | hETAR agonist activity, percentage of activity relative to ET1 (human ETA receptor; @10nM): -17.37%@10nM; hETAR agonist activity, percentage of activity relative to ET1 (human ETA receptor; @100nM): -19.09%@100nM |
| Fum-DEEK(-γE-AEEA-AEEA-ODDA)VYFAHLDIIW (Fum-DEEK with lipidated linker N-terminal) [BX-66] | 60.51 | 7.67 | -0.94 | 13.13 | – |
| Suc-D cyclo(EEAK)YFAHK(-γE-AEEA-AEEA-ODDA)DIIW [BX-77] | 4.69 | -16.59 | -6.32 | -29.53 | – |
| Suc-D cyclo(EEAK)YFAHK(-γE-AEEA-AEEA-ODDA)DVIW [BX-79] | 19.85 | 2.13 | -12.17 | -46.08 | – |
| Suc-D cyclo(EEAK)YFAHLD(2-Abu)IW [BX-63] | 122.93 | 90.08 | 4.43 | -15.24 | – |
| Suc-DEEAVYFAHK(-γE-AEEA-AEEA-ODDA)DVIW (Suc-DEEAVYFAHK([γGlu-AEEA-AEEA-C18 diacid])DVIW) [BX-78] | 23.41 | -14.2 | -23.02 | -6.06 | – |
